Results: patent publication US12227500B2, “Substituted pyrrolo[2,3-b]pyridines for suppressing toxic endoplasmic reticulum stress” (THE TRUSTEES OF COLUMBIA UNIVERSITY IN THE CITY OF NEW YORK, priority 2018, dated 2025)
Like-named read-outs stand apart in the source and are kept apart here.

Legend:
MLK3/MAP3K11 = target: T1, MLK3/MAP3K11 (Homo sapiens, UniProt Q16584); test: Radiolabeled ATP kinase assay (Reaction Biology Corp.), MLK3; type: biochemical; settings: for % Enzyme Activity Remaining (relative to DMSO controls), MLK3/MAP3K11, Data 1 / % Enzyme Activity Remaining (relative to DMSO controls), MLK3/MAP3K11, Data 2: [Cmpd] 0.1 μM, 10 μM ATP
T1 construct: purchased Reaction Biology Corp
Experimental: (§1) Meanwhile, the same analogs were analyzed in a radiolabeled ATP assay (10 μM ATP; Reaction Biology Corp.) to compare the extent to which they could inhibit the activity of HGK, MLK1, or MLK3 in a cell-free environment (Table S3 and S4).

HGK/MAP4K4 = HGK/MAP4K4 (Homo sapiens, UniProt O95819); test: Radiolabeled ATP kinase assay (Reaction Biology Corp.), HGK; type: biochemical; design: purchased Reaction Biology Corp; settings: 10 μM ATP, read-out: % Enzyme Activity (relative to DMSO controls), HGK/MAP4K4, Data 1; for remaining activity at 0.025 µM: [Cmpd] 0.025 μM; for remaining activity at 0.1 µM: [Cmpd] 0.1 μM
Experimental: as §1

[1] = target: T2, panel of 60 human kinases (Homo sapiens, UniProt O60285); test: Radiolabeled ATP kinase assay, panel of 60 kinases (Table S5); type: biochemical; settings: ARK5/NUAK1; 0.1 μM; 10 μM ATP; read-out: % Enzyme Activity (relative to DSMO controls)
T2 construct: purchased Reaction Biology Corp
T2 sequence (O60285 1-661): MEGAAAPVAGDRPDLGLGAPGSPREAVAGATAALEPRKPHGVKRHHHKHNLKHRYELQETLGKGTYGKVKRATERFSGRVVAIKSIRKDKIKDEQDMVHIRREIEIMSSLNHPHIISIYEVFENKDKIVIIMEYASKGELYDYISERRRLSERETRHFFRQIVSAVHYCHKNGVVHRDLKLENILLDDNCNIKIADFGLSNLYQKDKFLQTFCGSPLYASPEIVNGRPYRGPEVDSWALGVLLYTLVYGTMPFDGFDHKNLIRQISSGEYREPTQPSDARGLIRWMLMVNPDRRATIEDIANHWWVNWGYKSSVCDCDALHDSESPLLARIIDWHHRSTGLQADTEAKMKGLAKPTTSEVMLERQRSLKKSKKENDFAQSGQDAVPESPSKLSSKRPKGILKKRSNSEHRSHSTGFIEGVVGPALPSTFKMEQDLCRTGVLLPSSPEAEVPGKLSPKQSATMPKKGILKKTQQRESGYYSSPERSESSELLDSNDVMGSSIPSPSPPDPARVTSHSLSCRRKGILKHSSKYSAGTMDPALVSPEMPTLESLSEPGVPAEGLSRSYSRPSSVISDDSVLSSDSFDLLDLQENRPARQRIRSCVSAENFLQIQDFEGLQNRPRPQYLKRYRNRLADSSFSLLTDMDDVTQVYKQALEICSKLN
Experimental: (§2) To better understand the biologically relevant targets of compound 1 and its analogs, a second round of cell-free kinase assays was performed. In this expanded assay, we selected ten analogs ranging from moderately to very strongly protective in the CPA assay. These analogs were evaluated for their ability to inhibit a selection of 60 kinases at 0.1 μM and 0.5 μM. […] RNAseq data were used to confirm the expression of each kinase in ES MNs (see Example 12).
(§3) RNAseq data were used to confirm the expression of each kinase in ES motor neurons (see Example 12).

[2] = target: T3, panel of 60 human kinases (Homo sapiens, UniProt P11362); test: as above; type: biochemical; settings: FGFR1; 0.1 μM; 10 μM ATP; read-out: % Enzyme Activity (relative to DSMO controls)
T3 construct: purchased Reaction Biology Corp
Experimental: as §2, §3

[3] = target: T4, panel of 60 human kinases (Homo sapiens, UniProt Q8N4C8); test: as above; type: biochemical; settings: MINK/MINK1; 0.1 μM; 10 μM ATP; read-out: % Enzyme Activity (relative to DSMO controls)
T4 construct: purchased Reaction Biology Corp
Experimental: as §2, §3

[4] = target: T5, panel of 60 human kinases (Homo sapiens, UniProt Q9H2K8); test: as above; type: biochemical; settings: TAOK3/JIK; 0.1 μM; 10 μM ATP; read-out: % Enzyme Activity (relative to DSMO controls)
T5 construct: purchased Reaction Biology Corp
T5 sequence (Q9H2K8 1-898): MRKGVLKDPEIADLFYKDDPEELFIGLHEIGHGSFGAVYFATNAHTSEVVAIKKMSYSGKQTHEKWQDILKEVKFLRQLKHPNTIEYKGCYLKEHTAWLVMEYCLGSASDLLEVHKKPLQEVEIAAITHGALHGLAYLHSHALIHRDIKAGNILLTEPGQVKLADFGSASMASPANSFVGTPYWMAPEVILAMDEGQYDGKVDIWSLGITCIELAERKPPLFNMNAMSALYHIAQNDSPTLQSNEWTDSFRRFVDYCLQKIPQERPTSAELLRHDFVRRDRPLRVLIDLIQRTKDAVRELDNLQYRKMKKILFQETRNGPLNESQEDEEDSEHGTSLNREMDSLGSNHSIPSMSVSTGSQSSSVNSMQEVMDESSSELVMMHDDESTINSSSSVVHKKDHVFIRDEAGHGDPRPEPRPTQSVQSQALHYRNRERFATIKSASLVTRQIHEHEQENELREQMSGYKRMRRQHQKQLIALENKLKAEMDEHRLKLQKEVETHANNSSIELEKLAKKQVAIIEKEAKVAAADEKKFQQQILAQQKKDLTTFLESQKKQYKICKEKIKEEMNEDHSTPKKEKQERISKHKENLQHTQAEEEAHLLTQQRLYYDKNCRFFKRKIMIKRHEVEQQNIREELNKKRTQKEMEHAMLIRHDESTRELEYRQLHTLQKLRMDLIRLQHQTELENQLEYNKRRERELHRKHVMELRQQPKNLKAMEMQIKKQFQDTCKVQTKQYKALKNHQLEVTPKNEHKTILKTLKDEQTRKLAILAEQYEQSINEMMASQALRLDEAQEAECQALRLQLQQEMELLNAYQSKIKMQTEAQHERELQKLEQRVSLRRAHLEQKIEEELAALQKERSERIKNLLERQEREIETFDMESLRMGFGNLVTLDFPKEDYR
Experimental: as §2, §3

[5] = target: T6, panel of 60 human kinases (Homo sapiens, UniProt Q92918); test: as above; type: biochemical; settings: HPK1/MAP4K1; 0.1 μM; 10 μM ATP; read-out: % Enzyme Activity (relative to DSMO controls)
T6 construct: purchased Reaction Biology Corp
Experimental: as §2, §3

[6] = system: human ES motor neurons carrying the ALS-causing SOD1^A4V mutation; test: cells; type: cell-based; settings: 72 h, 72 h; for EC50 / Emax: CPA 33 μM; for EC50: read-out: EC50; for viability at 1 µM: CPA (33 μM) + compound (1 μM), read-out: Motor Neuron Survival, % untreated; for Emax: read-out: Emax (MN survival % untreated)
Experimental: Next, survival assays were performed with all the analogs at once to generate a low-variability dataset. All compounds were evaluated at concentrations ranging from 0.1-3.0 μM (five-point dilution) in three technical replicates and two biological replicates.

MLK1/MAP3K9 = target: T7, MLK1/MAP3K9 (Homo sapiens, UniProt P80192); test: Radiolabeled ATP kinase assay (Reaction Biology Corp.), MLK1; type: biochemical; settings: [Cmpd] 0.1 μM, 10 μM ATP
T7 construct: purchased Reaction Biology Corp
Experimental: as §1

[7] = read-out: % Enzyme Activity Remaining (relative to DMSO controls), MLK1/MAP3K9, Data 1
[8] = read-out: % Enzyme Activity Remaining (relative to DMSO controls), MLK1/MAP3K9, Data 2

T1 sequence (Q16584 whole entry): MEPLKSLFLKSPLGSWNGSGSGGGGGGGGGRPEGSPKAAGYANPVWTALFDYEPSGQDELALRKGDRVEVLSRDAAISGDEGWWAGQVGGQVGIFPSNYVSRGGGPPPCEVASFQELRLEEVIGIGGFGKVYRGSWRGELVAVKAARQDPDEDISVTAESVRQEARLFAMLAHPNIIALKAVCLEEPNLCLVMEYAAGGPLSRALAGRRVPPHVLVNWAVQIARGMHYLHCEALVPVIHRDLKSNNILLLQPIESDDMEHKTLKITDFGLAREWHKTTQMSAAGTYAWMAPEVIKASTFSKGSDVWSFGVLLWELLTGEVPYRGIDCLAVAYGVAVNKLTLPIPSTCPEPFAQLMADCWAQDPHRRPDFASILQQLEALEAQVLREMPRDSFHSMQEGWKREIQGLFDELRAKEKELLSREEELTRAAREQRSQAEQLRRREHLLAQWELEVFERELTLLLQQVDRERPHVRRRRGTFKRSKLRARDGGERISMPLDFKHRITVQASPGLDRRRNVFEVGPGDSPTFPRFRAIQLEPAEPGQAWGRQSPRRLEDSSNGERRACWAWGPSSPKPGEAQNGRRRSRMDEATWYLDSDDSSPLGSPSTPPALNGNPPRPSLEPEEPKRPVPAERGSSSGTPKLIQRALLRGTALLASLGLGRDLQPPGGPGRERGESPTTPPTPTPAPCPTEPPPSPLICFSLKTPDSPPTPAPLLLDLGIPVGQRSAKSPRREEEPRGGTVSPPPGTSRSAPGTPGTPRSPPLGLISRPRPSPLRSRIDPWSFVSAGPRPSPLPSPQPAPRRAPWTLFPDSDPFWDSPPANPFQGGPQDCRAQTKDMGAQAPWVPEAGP
T4 sequence (Q8N4C8 whole entry): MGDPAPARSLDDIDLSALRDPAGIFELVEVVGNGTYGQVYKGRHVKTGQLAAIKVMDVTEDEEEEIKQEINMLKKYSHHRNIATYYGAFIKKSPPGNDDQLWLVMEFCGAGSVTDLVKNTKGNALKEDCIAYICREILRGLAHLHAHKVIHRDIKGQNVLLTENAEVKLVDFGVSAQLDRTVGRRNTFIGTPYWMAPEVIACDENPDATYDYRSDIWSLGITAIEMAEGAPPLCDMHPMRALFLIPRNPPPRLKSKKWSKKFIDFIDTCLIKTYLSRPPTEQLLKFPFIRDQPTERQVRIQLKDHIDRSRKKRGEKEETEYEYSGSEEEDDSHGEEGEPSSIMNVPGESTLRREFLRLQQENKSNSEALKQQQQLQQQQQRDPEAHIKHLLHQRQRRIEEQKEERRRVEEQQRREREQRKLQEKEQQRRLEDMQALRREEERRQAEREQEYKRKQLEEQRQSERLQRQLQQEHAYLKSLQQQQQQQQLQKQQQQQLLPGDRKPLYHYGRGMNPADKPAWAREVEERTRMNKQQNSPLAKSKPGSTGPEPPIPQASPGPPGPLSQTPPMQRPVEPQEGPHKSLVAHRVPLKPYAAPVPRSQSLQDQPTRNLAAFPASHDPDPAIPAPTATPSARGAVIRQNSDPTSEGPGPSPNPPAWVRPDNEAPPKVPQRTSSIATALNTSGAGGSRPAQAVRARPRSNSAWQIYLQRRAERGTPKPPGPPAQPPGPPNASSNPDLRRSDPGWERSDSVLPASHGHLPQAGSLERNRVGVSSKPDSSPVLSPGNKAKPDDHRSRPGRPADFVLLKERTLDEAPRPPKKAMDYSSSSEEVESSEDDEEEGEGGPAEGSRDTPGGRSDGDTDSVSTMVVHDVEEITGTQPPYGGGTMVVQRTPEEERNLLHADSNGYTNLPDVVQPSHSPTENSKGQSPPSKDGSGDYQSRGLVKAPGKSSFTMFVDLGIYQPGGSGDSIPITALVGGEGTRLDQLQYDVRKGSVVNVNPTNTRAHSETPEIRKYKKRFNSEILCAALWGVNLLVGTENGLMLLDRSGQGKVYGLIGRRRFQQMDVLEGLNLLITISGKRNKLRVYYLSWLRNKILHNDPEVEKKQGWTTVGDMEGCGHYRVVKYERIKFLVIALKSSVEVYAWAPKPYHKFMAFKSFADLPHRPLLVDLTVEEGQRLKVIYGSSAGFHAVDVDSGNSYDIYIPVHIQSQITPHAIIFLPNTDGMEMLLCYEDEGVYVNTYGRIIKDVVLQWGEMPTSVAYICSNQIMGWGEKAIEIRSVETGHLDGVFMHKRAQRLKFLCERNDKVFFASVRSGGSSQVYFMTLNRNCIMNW
T6 sequence (Q92918 whole entry): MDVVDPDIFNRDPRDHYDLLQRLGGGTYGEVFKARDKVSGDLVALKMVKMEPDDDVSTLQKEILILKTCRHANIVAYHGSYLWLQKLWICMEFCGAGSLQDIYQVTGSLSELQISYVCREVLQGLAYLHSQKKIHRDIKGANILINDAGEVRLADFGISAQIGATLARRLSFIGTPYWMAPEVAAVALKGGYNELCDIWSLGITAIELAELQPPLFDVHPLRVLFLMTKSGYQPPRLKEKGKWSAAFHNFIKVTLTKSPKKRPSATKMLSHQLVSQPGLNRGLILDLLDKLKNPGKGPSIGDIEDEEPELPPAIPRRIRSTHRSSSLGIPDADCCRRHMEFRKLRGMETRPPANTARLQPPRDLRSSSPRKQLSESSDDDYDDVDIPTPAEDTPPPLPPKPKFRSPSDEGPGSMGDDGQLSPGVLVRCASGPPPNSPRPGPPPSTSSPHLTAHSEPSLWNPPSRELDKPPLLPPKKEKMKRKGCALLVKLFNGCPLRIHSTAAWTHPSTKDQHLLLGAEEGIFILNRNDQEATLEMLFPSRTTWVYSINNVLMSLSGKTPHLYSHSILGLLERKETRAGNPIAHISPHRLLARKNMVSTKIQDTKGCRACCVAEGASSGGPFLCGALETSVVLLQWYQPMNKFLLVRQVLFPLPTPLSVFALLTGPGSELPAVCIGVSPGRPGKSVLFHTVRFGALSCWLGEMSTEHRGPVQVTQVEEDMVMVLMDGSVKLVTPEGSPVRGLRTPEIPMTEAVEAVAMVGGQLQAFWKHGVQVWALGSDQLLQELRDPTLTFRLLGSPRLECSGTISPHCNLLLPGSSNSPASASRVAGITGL
T3 sequence (P11362 22-822): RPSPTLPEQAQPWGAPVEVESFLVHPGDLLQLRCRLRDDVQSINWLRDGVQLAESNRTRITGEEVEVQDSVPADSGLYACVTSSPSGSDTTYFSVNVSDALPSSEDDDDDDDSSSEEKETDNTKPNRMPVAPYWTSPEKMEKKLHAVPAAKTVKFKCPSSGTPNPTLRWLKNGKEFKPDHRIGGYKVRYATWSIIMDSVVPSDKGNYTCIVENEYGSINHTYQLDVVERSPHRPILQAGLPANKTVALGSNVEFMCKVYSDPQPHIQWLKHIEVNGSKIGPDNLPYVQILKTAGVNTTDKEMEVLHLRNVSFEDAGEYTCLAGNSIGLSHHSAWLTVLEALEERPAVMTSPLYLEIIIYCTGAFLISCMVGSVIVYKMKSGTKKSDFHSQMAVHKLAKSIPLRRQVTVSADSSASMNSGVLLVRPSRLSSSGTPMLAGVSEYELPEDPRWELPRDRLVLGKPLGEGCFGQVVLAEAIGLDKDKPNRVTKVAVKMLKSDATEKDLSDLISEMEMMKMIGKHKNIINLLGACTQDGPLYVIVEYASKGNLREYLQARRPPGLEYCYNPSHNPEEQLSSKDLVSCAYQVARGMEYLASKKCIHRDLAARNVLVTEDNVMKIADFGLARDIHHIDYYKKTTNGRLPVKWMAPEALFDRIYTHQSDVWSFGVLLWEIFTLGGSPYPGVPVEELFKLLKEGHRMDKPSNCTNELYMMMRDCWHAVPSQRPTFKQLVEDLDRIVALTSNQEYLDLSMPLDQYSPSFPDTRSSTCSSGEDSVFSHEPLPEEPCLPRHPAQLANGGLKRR
T7 sequence (P80192 whole entry): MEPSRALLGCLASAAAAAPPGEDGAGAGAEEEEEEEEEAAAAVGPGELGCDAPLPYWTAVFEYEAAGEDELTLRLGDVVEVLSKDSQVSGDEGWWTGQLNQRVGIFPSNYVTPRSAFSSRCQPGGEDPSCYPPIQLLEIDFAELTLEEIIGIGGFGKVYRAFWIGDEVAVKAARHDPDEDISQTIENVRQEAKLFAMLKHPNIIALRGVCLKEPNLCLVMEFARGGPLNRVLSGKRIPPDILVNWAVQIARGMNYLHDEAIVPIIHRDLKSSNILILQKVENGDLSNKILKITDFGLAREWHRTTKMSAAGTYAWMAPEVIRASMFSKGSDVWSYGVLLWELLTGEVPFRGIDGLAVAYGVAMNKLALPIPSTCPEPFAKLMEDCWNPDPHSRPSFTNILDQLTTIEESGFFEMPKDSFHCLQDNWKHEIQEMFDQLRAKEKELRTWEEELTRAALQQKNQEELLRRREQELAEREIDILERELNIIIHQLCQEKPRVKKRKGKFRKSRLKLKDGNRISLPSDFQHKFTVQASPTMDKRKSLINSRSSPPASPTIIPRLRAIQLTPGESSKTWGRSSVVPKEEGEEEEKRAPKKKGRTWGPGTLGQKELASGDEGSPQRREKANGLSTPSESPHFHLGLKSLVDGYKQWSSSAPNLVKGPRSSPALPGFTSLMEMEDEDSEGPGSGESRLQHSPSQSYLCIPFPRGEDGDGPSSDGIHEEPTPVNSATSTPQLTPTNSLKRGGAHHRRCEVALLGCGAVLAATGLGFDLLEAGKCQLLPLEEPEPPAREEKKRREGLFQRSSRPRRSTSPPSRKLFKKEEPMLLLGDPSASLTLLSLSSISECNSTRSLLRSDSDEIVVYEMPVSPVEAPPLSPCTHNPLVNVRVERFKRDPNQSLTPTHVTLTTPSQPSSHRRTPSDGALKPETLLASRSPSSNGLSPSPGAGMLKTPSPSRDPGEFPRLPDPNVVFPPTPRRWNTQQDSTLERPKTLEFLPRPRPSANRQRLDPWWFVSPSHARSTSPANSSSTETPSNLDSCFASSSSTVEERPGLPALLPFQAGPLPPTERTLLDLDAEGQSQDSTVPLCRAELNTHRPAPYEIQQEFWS

SMILES | remaining activity at 0.1 µM (MLK3/MAP3K11; 0.1 μM) [%] | remaining activity at 0.025 µM (HGK/MAP4K4) [%] | remaining activity at 0.1 µM (HGK/MAP4K4) [%] | remaining activity at 0.1 µM [1] [%] | remaining activity at 0.1 µM [2] [%] | remaining activity at 0.1 µM [3] [%] | remaining activity at 0.1 µM [4] [%] | remaining activity at 0.1 µM [5] [%] | EC50 ([6]; Homo sapiens, Neuron) [nM] | viability at 1 µM ([6]; Homo sapiens, Neuron) [%] | Emax ([6]; Homo sapiens, Neuron) [%] | remaining activity at 0.1 µM (MLK1/MAP3K9; [7]) [%] | remaining activity at 0.1 µM (MLK1/MAP3K9; [8]) [%] | % Enzyme Activity Remaining (relative to DMSO controls), MLK3/MAP3K11, Data 1 (MLK3/MAP3K11) [%] | % Enzyme Activity Remaining (relative to DMSO controls), MLK3/MAP3K11, Data 2 (MLK3/MAP3K11) [%] | EC50 [6] [nM]
CN1CCN(Cc2ccc(-c3cnc4[nH]cc(-c5ccc6[nH]ccc6c5)c4c3)cc2)CC1 [Compound 1, 3-(1H-Indol-5-yl)-5-(4-((4-methylpiperazin-1-yl)methyl)phenyl)-1H-pyrrolo[2,3-b]pyridine, reference compound] | 10.5 | 18.5 | 5.23 | 5.96 | 82.7 | 5.53 | 84 | 24 | 215 | 102 | 102 | 16.2 | 14.2 |  |  | 
CN1CCN(Cc2ccc(-c3cnc4[nH]cc(-c5ccccc5Cl)c4c3)cc2)CC1 [Compound 7as, 3-(2-Chlorophenyl)-5-(4-((4-methylpiperazin-1-yl)methyl)phenyl)-1H-pyrrolo[2,3-b]pyridine] |  | 17.6 | 3.61 | 4.44 | 77.9 | 0.19 | 69.8 | 19.5 | 329 | 80.8 | 80.8 | 72.7 | 73.3 | 49.99 | 51.55 | 
OCCN1CCN(Cc2ccc(-c3cnc4[nH]cc(-c5cccc(Cl)c5)c4c3)cc2)CC1 [Compound 12k, 2-(4-(4-(3-(3-Chlorophenyl)-1H-pyrrolo[2,3-b]pyridin-5-yl)benzyl)piperazin-1-yl)ethan-1-ol] |  |  |  |  |  |  |  |  | 99 |  | 112 |  |  |  |  | 100
CN1CCN(Cc2ccc(-c3cnc4[nH]cc(-c5cnn(Cc6ccccc6)c5)c4c3)cc2)CC1 [Compound 7ah, 3-(1-Benzyl-1H-pyrazol-4-yl)-5-(4-((4-methylpiperazin-1-yl)methyl)phenyl)-1H-pyrrolo[2,3-b]pyridine] |  | 42.8 | 3.56 | 0.03 | 91.4 | 5.06 | 77.4 | 17.8 | 234 | 67.1 | 67.1 | 51.1 | 48.2 | 32.02 | 32.11 | 
CN1CCN(Cc2ccc(-c3cnc4[nH]cc(-c5ccncc5)c4c3)cc2)CC1 [Compound 7n, 5-(4-((4-Methylpiperazin-1-yl)methyl)phenyl)-3-(pyridin-4-yl)-1H-pyrrolo[2,3-b]pyridine] |  | 65.7 | 29.9 | 39.3 | 100 | 38.8 | 94.9 | 57.7 | 483 | 36.3 | 36.3 | 88.9 | 88.7 | 91.26 | 92.62 | 
COc1ccccc1-c1c[nH]c2ncc(-c3ccc(CN4CCN(C)CC4)cc3)cc12 [Compound 7at, 3-(2-Methoxyphenyl)-5-(4-((4-methylpiperazin-1-yl)methyl)phenyl)-1H-pyrrolo[2,3-b]pyridine] |  | 29.3 | 4.83 | 22.9 | 96.4 | 9.84 | 65.5 | 55.6 | 297 | 67.5 | 85 | 31.3 | 30.6 | 24.55 | 21.30 | 
CN1CCN(Cc2ccc(-c3cnc4[nH]cc(-c5cccc(Cl)c5)c4c3)cc2)CC1 [Compound 7ad, 3-(3-Chlorophenyl)-5-(4-((4-methylpiperazin-1-yl)methyl)phenyl)-1H-pyrrolo[2,3-b]pyridine] |  | 8.51 | 2.92 | 22.4 | 98.2 | 3.06 | 92 | 62.5 | 285 | 87.7 | 87.7 | 61.9 | 63.6 | 37.50 | 38.21 | 
